Source: patent US8465983B1, “Detection and delivery systems utilizing supported lipid bilayers” (priority 2005, dated 2013)

Test system: lipid membranes on porous silica beads packed in microcolumn
Test: Microfluidic study: release of dye from a bead packed microcolumn after TRITON X-100 injection
Format: biochemical
Conditions: 10 μL of 10% TRITON X-100 injected, 5 min no flow
Description: To create a packed microcolumn of lipid coated beads containing fluorescein, 2 μL of silica bead (diameter=20 μm) containing suspension (0.05 mg/μL) was injected into a microfluidic channel by applying vacuum at the outlet port of the microchannel, followed by the injection of 10 μL of fluorescein-entrapped bead (diameter=10 μm) containing suspension (0.05 mg/μL). The bead packed microchannel was mounted onto a vertical translational stage located in the sample holder space of the fluorimeter. Just below the bead segment, the microchannel was irradiated with an Argon ion laser (λ=488 nm, 8-10 mW) excitation. The inlet of the column was connected to a buffer reservoir while the outlet was connected to a vacuum source. As the fluorescence intensity at 520 nm was monitored, several microliters of Tris buffer was passed through the microchannel before the injection of TRITON X-100 detergent. […]
The packed segment was about 2 mm long. The disruption of the membranes on porous silica beads (containing fluorescein dye) by TRITON X-100 detergent was detected by monitoring the release of the dye from the beads, at a point just below the bead segment as indicated in FIG. 7B. […] The microcolumn was irradiated at 488 nm and fluorescence intensity was monitored at 520 nm. […]

Substance: TRITON X-100
- initial signal (1st peak) less than that observed in suspension studies: ~80%
